Data from US10227323B2, “Glucosylceramide synthase inhibitors for the treatment of diseases” (BIOMARIN PHARMACEUTICAL INC., priority 2013, dated 2019).

Each molecule was assayed against T1, GCS (Canis lupus familiaris, UniProt A0A8I3MXG6) (assay: Assay 1: GCS Enzymatic Assay (MDCK cell lysate, C6-NBD-Ceramide, LC/MS)). Settings: Table 1; MDCK cell lysate; read-out: IC50 (nM) generated from Assay 1.
T1 sequence (A0A8I3MXG6 1-394): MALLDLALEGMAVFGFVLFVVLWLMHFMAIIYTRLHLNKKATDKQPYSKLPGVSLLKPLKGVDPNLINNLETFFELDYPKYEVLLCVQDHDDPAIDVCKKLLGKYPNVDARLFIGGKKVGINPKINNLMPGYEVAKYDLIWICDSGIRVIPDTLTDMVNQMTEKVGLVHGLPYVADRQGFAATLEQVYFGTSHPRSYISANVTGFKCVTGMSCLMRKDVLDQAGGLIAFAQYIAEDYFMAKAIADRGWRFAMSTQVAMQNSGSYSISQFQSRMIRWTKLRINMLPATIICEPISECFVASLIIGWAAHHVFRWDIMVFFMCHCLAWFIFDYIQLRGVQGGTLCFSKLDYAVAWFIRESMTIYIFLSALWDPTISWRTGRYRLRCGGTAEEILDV
Format: biochemical, canine
Summary of the method: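 LC/MS/MS measurement of glucosylceramide and NBD-ceramide after a 1 h, 37 °C reaction with 100 μM UDP-glucose and 10 μM C6-NBD-ceramide gave IC50s or percent inhibition.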

Structure (SMILES) | IC50 [nM]
O=C(N[C@H](CN1CCCC1)[C@H](O)c1ccc2c(c1)OCCO2)C(=O)C1Cc2ccc(-c3ccccn3)cc2C1 (stereo partly drawn) [Compound 73, N-((1R,2R)-1-(2,3-dihydrobenzo[b][1,4]dioxin-6-yl)-1-hydroxy-3-(pyrrolidin-1-yl)propan-2-yl)-2-oxo-2-(5-(pyridin-2-yl)-2,3-dihydro-1H-inden-2-yl)acetamide] | < 50

Same assay, conditions: Table 2; data marked by *

Structure (SMILES) | % inhibition generated from Assay 1
CC1CN(C[C@@H](NC(=O)C(=O)c2cc3cc(Cl)ccc3o2)[C@H](O)c2ccc3c(c2)OCCO3)C1 [Compound 100, 2-(5-chlorobenzofuran-2-yl)-N-((1R,2R)-1-(2,3-dihydrobenzo[b][1,4]dioxin-6-yl)-1-hydroxy-3-(3-methylazetidin-1-yl)propan-2-yl)-2-oxoacetamide] | B* (the compound had a % inhibition of greater than or equal to about 3% but less than about 50%)

Same assay, conditions: Table 2; data without asterisk; read-out: IC50 (nM) generated from Assay 1

Structure (SMILES) | IC50 [nM]
O=C(N[C@H](CN1CCCC1)[C@H](O)c1ccc(OC2CC2)c(Cl)c1)C(=O)c1cc2ccccc2s1 [Compound 377, 2-(benzo[b]thiophen-2-yl)-N-((1R,2R)-1-(3-chloro-4-cyclopropoxyphenyl)-1-hydroxy-3-(pyrrolidin-1-yl)propan-2-yl)-2-oxoacetamide] | < 50
O=C(N[C@H](CN1CCCC1)[C@H](O)c1ccc(SC2CC2)c(Cl)c1)C(=O)c1ccc(-c2ccc(F)cc2)cc1 [Example 320, N-((1R,2R)-1-(3-chloro-4-(cyclopropylthio)phenyl)-1-hydroxy-3-(pyrrolidin-1-yl)propan-2-yl)-2-(4′-fluoro-[1,1′-biphenyl]-4-yl)-2-oxoacetamide] | < 50
O=C(N[C@H](CN1CCCC1)[C@H](O)c1cc(F)c2c(c1)OCCO2)C(=O)c1ccc(-c2ccc3cnn(C4CC4)c3c2)cc1 [Example 282, 2-(4-(1-cyclopropyl-1H-indazol-6-yl)phenyl)-N-((1R,2R)-1-(8-fluoro-2,3-dihydrobenzo[b][1,4]dioxin-6-yl)-1-hydroxy-3-(pyrrolidin-1-yl)propan-2-yl)-2-oxoacetamide] | < 50
Cn1cc2ccc(-c3ccc(C(F)(F)C(=O)N[C@H](CN4CCCC4)[C@H](O)c4ccc(OC5CC5)c(Cl)c4)cc3)cc2n1 [Compound 237, N-((1R,2R)-1-(3-chloro-4-cyclopropoxyphenyl)-1-hydroxy-3-(pyrrolidin-1-yl)propan-2-yl)-2,2-difluoro-2-(4-(2-methyl-2H-indazol-6-yl)phenyl)acetamide] | < 50
O=C(N[C@H](CN1CCC1)[C@H](O)c1cc(F)c2c(c1)OCCO2)/C(=N/O)c1ccc2cc(Cl)ccc2c1 [Compound 191, (E)-N-((1R,2R)-3-(azetidin-1-yl)-1-(8-fluoro-2,3-dihydrobenzo[b][1,4]dioxin-6-yl)-1-hydroxypropan-2-yl)-2-(6-chloronaphthalen-2-yl)-2-(hydroxyimino)acetamide] | < 50
CC(C)(O)c1ccc(-c2ccc(C(=O)C(=O)N[C@H](CN3CCCC3)[C@H](O)c3ccc(OC4CC4)c(Cl)c3)cc2)cc1 [Example 358, N-((1R,2R)-1-(3-chloro-4-cyclopropoxyphenyl)-1-hydroxy-3-(pyrrolidin-1-yl)propan-2-yl)-2-(4′-(2-hydroxypropan-2-yl)-[1,1′-biphenyl]-4-yl)-2-oxoacetamide] | < 50
O=C(N[C@H](CN1CCCC1)[C@H](O)c1cc(F)c2c(c1)OCCO2)C(F)(F)CCc1ccc2c(c1)CCCC2 [Compound 167, 2,2-difluoro-N-((1R,2R)-1-(8-fluoro-2,3-dihydrobenzo[b][1,4]dioxin-6-yl)-1-hydroxy-3-(pyrrolidin-1-yl)propan-2-yl)-4-(5,6,7,8-tetrahydronaphthalen-2-yl)butanamide] | < 50
O=C(N[C@H](CN1CCCC1)[C@H](O)c1cc(F)c2c(c1)OCCO2)/C(=N/O)c1ccc(-c2ccc(F)cc2)cc1 [Compound 138, (E)-N-((1R,2R)-1-(8-fluoro-2,3-dihydrobenzo[b][1,4]dioxin-6-yl)-1-hydroxy-3-(pyrrolidin-1-yl)propan-2-yl)-2-(4′-fluoro-[1,1′-biphenyl]-4-yl)-2-(hydroxyimino)acetamide] | < 50
O=C(N[C@H](CN1CCCC1)[C@H](O)c1ccc(OC2CC2)c(Cl)c1)C(=O)c1ccc2sccc2c1 [Compound 233, 2-(benzo[b]thiophen-5-yl)-N-((1R,2R)-1-(3-chloro-4-cyclopropoxyphenyl)-1-hydroxy-3-(pyrrolidin-1-yl)propan-2-yl)-2-oxoacetamide] | < 50
O=C(N[C@H](CN1CCCC1)[C@H](O)c1ccc(OC2CC2)c(Cl)c1)C(=O)c1ccc(-c2ccc3cnn(C4CC4)c3c2)cc1 [Example 281, N-((1R,2R)-1-(3-chloro-4-cyclopropoxyphenyl)-1-hydroxy-3-(pyrrolidin-1-yl)propan-2-yl)-2-(4-(1-cyclopropyl-1H-indazol-6-yl)phenyl)-2-oxoacetamide] | < 50
O=C(N[C@H](CN1CCC1)[C@H](O)c1cc(F)c2c(c1)OCCO2)C(F)(F)C1Cc2ccc(Cl)cc2C1 (stereo partly drawn) [Compound 92, N-((1R,2R)-3-(azetidin-1-yl)-1-(8-fluoro-2,3-dihydrobenzo[b][1,4]dioxin-6-yl)-1-hydroxypropan-2-yl)-2-(5-chloro-2,3-dihydro-1H-inden-2-yl)-2,2-difluoroacetamide] | < 50
O=C(N[C@H](CN1CCCC1)[C@H](O)c1cc(F)c2c(c1)OCCO2)C(=O)c1ccc(-c2ccccn2)cc1 [Compound 228, N-((1R,2R)-1-(8-fluoro-2,3-dihydrobenzo[b][1,4]dioxin-6-yl)-1-hydroxy-3-(pyrrolidin-1-yl)propan-2-yl)-2-oxo-2-(4-(pyridin-2-yl)phenyl)acetamide] | < 50
O=C(N[C@H](CN1CCCC1)[C@H](O)c1ccc(OC2CCC2)c(Cl)c1)C(=O)c1ccc(-c2ccc(F)cc2)cc1 [Example 313, N-((1R,2R)-1-(3-chloro-4-cyclobutoxyphenyl)-1-hydroxy-3-(pyrrolidin-1-yl)propan-2-yl)-2-(4′-fluoro-[1,1′-biphenyl]-4-yl)-2-oxoacetamide] | < 50
O=C(N[C@H](CN1CCCC1)[C@H](O)c1cc(F)c2c(c1)OCCO2)C(=O)c1cccc(-c2ccc(F)cc2)c1 [Compound 250, N-((1R,2R)-1-(8-fluoro-2,3-dihydrobenzo[b][1,4]dioxin-6-yl)-1-hydroxy-3-(pyrrolidin-1-yl)propan-2-yl)-2-(4′-fluoro-[1,1′-biphenyl]-3-yl)-2-oxoacetamide] | < 50
O=C(N[C@H](CN1CCCC1)[C@H](O)c1cc(F)c2c(c1)OCCO2)C(=O)c1ccc2ccc(Cl)cc2c1 [Compound 156, 2-(7-chloronaphthalen-2-yl)-N-((1R,2R)-1-(8-fluoro-2,3-dihydrobenzo[b][1,4]dioxin-6-yl)-1-hydroxy-3-(pyrrolidin-1-yl)propan-2-yl)-2-oxoacetamide] | < 50
O=C(N[C@H](CN1CCCC1)[C@H](O)c1ccc2c(c1)OCCO2)C(=O)c1ccc(-c2ccc(F)cc2)s1 [Compound 174, N-((1R,2R)-1-(2,3-dihydrobenzo[b][1,4]dioxin-6-yl)-1-hydroxy-3-(pyrrolidin-1-yl)propan-2-yl)-2-(5-(4-fluorophenyl)thiophen-2-yl)-2-oxoacetamide] | < 50

Same assay, conditions: Table 3; MDCK cell lysate; read-out: IC50 (nM) generated from Assay 1

Structure (SMILES) | IC50 [nM]
O=C(N[C@H](CN1CCCC1)[C@H](O)c1ccc(OC2CC2)c(Cl)c1)C(=O)c1ccc(-n2cccn2)cc1 [Example 400, 2-(4-(1H-pyrazol-1-yl)phenyl)-N-((1R,2R)-1-(3-chloro-4-cyclopropoxyphenyl)-1-hydroxy-3-(pyrrolidin-1-yl)propan-2-yl)-2-oxoacetamide] | < 50
